Measurements: US7982049B2, “α-form or β-form crystal of acetanilide derivative” (Astellas Pharma Inc., priority 2001, dated 2011)
Entries after “also recorded” stand apart in the source; their conditions may differ. Structures can show the parent of a compound that is named as a salt.

Tests used:
[1] = Hygroscopicity test (VTI SGA-100); assay type: physicochemical; conditions: for hygroscopicity (in words): 5 to 95% of relative humidity; for relative humidity from which an increase in the weight is observed: measurement interval 5% of relative humidity; for stability of the crystal (in words): judged with the hygroscopicity result
Method: The hygroscopicity was measured using VTI SGA-100 under the following conditions. Temperature: 25° C., measurement range: from 5 to 95% of relative humidity, measurement interval: 5% of relative humidity.

Male kk mice = experiment: Hypoglycemic test in kk mice (insulin resistance model: obesity and hyperglycemia); assay type: in vivo; conditions: oral, once daily for 7 days, blood glucose 15 to 18 hours after final administration, n=6
Method: Hypoglycemic Test in kk Mice (Insulin Resistance Model: Obesity and Hyperglycemia) Male kk mice (blood glucose level: 200 mg/dL or more) were measured for blood glucose level under feeding and then randomly classified into groups. The drug to be tested was compulsorily orally administered once daily for 7 days, and the blood glucose level after 15 to 18 hours from the final administration was compared with that before the administration (n=6). The blood was collected from a tail vein of the mouse using a glass capillary (previously treated with heparin), a protein was removed therefrom, and the amount of glucose in the supernatant (mg/dL) was measured by colorimetric determination by means of the glucose oxidase method. Further, a dose by which the blood glucose level was reduced by 30% as compared with that before the administration of the drug to be tested was expressed as an ED30 value.

[2] = Solubility in recrystallization solvent; assay type: physicochemical; conditions: 37% to 50% ethanol aqueous solution, as compared with the α-form crystal
[3] = 25° C., listed as (R)-2-(2-aminothiazol-1-4-yl)-4′-[2-[(2-hydroxy-2-phenylethyl)amino]ethyl]-aceta, dihydrochloride

| Structure (SMILES) | hygroscopicity (in words) ([1]; 25° C., dihydrochloride) | hygroscopicity (in words) [1, 3] | hygroscopicity (in words) ([1]; 25° C., listed as (R)-2-(2-aminothiazol-4-yl)-4′-[2-[(2-hydroxy-2-phenylethyl)amino]ethyl]-acetani, dihydrochloride) | hygroscopicity (in words) ([1]; 25° C., listed as dihydrochloride, dihydrochloride) | moisture held ([1]; 25° C., at a relative humidity of 90%) | relative humidity from which an increase in the weight is observed ([1]; 25° C., dihydrochloride) [%] | relative humidity from which an increase in the weight is observed [1, 3] | stability of the crystal (in words) ([1]; dihydrochloride) | stability of the crystal (in words) ([1]; listed as (R)-2-(2-aminothiazol-4-yl)-4′-[2-[(2-hydroxy-2-phenylethyl)amino]ethyl]-acetani, dihydrochloride) | stability of the crystal (in words) ([1]; listed as dihydrochloride, dihydrochloride) | hygroscopicity (in words) ([1]; 25° C.) | moisture-holding amount ([1]; 25° C., over the entire range of relative humidity from 5% to 95%) | stability of the crystal (in words) [1] | ED30 value (dose by which the blood glucose level was reduced by 30% as compared with that before the administration) (Male kk mice) | solubility in a recrystallization solvent [2] | relative humidity from which an increase in the weight is observed ([1]; 25° C.) | moisture held ([1]; 25° C., relative humidity not stated for the value (measurement range 5 to 95%)) |
| --- | --- | --- | --- | --- | --- | --- | --- | --- | --- | --- | --- | --- | --- | --- | --- | --- | --- |
| Nc1nc(CC(=O)Nc2ccc(CCNC[C@H](O)c3ccccc3)cc2)cs1 [dihydrochloride crystal, (R)-2-(2-aminothiazol-4-yl)-4′-[2-[(2-hydroxy-2-phenylethyl)amino]ethyl]-acetanilide dihydrochloride, reference compound] | strongly hygroscopic | strong hygroscopicity | strong hygroscopicity | strong hygroscopicity | about 14% | 80 | about 80% | unstable | unstable | unstable |  |  |  |  |  |  |  |
| Nc1nc(CC(=O)Nc2ccc(CCNC[C@H](O)c3ccccc3)cc2)cs1 [α-form crystal, (R)-2-(2-aminothiazol-4-yl)-4′-[2-[(2-hydroxy-2-phenylethyl)amino]ethyl]acetanilide] |  |  |  |  |  |  |  |  |  |  | not exhibiting hygroscopicity; also recorded: does not exhibit hygroscopicity; also recorded: did not exhibit hygroscopicity | not more than 0.2% | stable; also recorded: excellent in stability | not more than 3.5 mg/kg/day |  |  |  |
| Nc1nc(CC(=O)Nc2ccc(CCNC[C@H](O)c3ccccc3)cc2)cs1 [β-form crystal, (R)-2-(2-aminothiazol-4-yl)-4′-[2-[(2-hydroxy-2-phenylethyl)amino]ethyl]acetanilide] |  |  |  |  |  |  |  |  |  |  | weak hygroscopicity |  |  |  | high solubility | about 20% | about 3% |
